The record followed here is article PMC10350924, “Design, Synthesis, and Pharmacological Characterization of a Potent Soluble Epoxide Hydrolase Inhibitor for the Treatment of Acute Pancreatitis” (Journal of Medicinal Chemistry, 2023).

The IC50 is the concentration that gives 50% inhibition.

“And” between values parts separate entries of the source, which are not always exact repeats. Identical values can stand only once.

A short description of series [1]: Chemical stability in phosphate buffer pH 7.4. The series is classed as physicochemical. The settings on record: 5 μM. The text has this:
The chemical and metabolic stabilities of compounds 6, 27, 28, 30, and 36 were monitored using a UHPLC system (Shimadzu, Kyoto, Japan) consisting of a CBM-40 Lite controller, two LC-40B X3 solvent delivery modules, an SPD-M40 photodiode array detector, a CTO-30A column oven and, a SIL-40AC X3 autosampler. The UHPLC system was coupled online to LCMS-2020 single quadrupole mass spectrometer (Shimadzu, Kyoto, Japan) equipped with an electrospray ionization (ESI) source operating in positive mode.
The chromatographic separation was accomplished on a Luna Omega 1.6 μm Polar C18 100 Å, 100 mm × 2.1 mm (Phenomenex, Bologna, Italy) maintained at 40 °C. The optimal mobile phase consisted of 0.1% HCOOH/H2O v/v (A) and 0.1% HCOOH/ACN v/v (B) delivered at a constant flow rate of 0.3 mL min^–1. Analysis was performed in gradient elution as follows: 0–8.00 min, 30–95% B; 8.00–10.00 min, isocratic to 95% B, then 5 min for column re-equilibration.
The ESI was operated in positive mode, with the following parameters: interface temperature, 350 °C; interface voltage, 4.5 kV; DL (desolvation line) temperature, 250 °C; block heater temperature, 200 °C; nebulizing gas flow (N2), 1.5 L min^–1; drying gas pressure, 15 L min^–1. Quantification was performed in SIM (single-ion monitoring) mode.
For the calibration curves, the primary stock solutions (10 mM) of compounds 6, 27, 28, 30, and 36 were prepared in DMSO. The working standard solutions were prepared by serial dilution of the stock solutions in methanol to obtain necessary concentrations (0.25–10 μM). A solution containing an internal standard (IS: tolbutamide) was prepared at 10 μM in methanol. Quantitation of compounds 6, 27, 28, 30, and 36 was performed using linear regression of the response ratios obtained from the calibration curve to calculate the corresponding amount (6: y = 1.97175x + 0.53508, R^2 = 0.9998; 27: y = 2.90980x + 0.03831, R^2 = 0.9993; 28: y = 2.05962x + 0.02242, R^2 = 0.9994; 30: y = 1.98080x + 0.14962, R^2 = 0.9997; 36: y = 4.59526x – 0.13459, R^2 = 0.9991).
1.25 μL of test compounds (5 μM final incubation concentration) was incubated in 200 μL of phosphate buffer at pH 7.4. At each specified time point (0, 0.5, 1, 1.5, and 2 h), the analyte was removed into 200 μL of ice-cold methanol containing internal standard (tolbutamide) to stop degradation. Finally, the concentration of the test compound was quantified by LC-MS. The percentage of compound remaining (relative to the 0 min time point) at the individual time points is then reported. All experiments were performed in triplicate.

The target in a further series is T1, 5-LOX (Homo sapiens, UniProt P09917).
T1 sequence (P09917 1-674): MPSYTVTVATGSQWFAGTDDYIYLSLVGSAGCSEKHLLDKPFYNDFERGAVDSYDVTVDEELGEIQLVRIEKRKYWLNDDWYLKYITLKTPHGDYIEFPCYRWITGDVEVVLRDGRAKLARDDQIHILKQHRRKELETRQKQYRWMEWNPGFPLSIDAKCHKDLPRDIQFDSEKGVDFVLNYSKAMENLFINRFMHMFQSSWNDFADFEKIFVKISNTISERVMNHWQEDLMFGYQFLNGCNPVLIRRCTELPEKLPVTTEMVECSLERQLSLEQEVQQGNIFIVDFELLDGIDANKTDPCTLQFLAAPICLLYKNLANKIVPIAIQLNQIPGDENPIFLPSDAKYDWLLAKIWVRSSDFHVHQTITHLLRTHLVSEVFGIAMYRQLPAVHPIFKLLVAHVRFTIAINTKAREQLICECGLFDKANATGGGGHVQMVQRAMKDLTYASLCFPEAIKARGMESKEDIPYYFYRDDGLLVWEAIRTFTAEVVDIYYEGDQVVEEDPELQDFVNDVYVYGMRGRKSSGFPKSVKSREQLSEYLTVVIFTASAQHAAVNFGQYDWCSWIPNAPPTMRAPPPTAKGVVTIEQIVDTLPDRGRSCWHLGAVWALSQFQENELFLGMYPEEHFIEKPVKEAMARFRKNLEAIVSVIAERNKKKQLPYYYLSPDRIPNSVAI
The experiment in a line: 5-LOX product formation in human activated PMNL (A23187). Format: cell-based. Also on record: Freshly isolated PMNL (5 × 10^6) suspended in PBS pH 7.4 with 1 mg/mL glucose were preincubated with the test compounds; endogenous in cells; host or cells: human PMNL from donor blood; remaining activity: dose or concentration left out as unconfirmed. The settings on record: for remaining activity at 10 µM: read-out: 5-LOX residual activity in PMNL (%) at 10 μM; for remaining activity: PMNL, read-out: 5-LO residual activity in PMNL (%). The protocol: Human PMNL were freshly isolated from leukocyte concentrates that were obtained from the Institute for Transfusion Medicine of the University Hospital Jena (Germany). […] These volunteers regularly donated blood (every 8–12 weeks) and were physically inspected by a clinician. […] Leukocytes were concentrated by centrifugation (4000g/20 min/20 °C) of freshly withdrawn blood. […] PMNL were obtained from the cell pellet. […] The reaction was stopped with an equal volume of methanol containing PGB1 (200 ng) as internal standard. Major 5-LOX products (all-trans isomers of LTB and 5-HETE, and additionally LTB4) were extracted and analyzed by RP-HPLC as described for the determination of cell-free 5-LOX activity.

The mark [2] stands for this setting: 0.5 h, compound remaining relative to 0 min.

As for `O=C(NCC12C[C@H]3C[C@@H](C1)C[C@@H](C2)C3)Nc1ccc2c(ccn2C(=O)c2ccc(F)cc2)c1` [Compound 36, 1-(((3R,5R,7R)-Adamantan-1-yl)methyl)-3-(1-(4-fluorobenzoyl)-1H-indol-5-yl)urea], the “chemical stability in phosphate buffer (pH 7.4)” value (“chemical stability” below) in series [1] (setting [2]) was 96.3 ± 3.2%; in series [1] (1.0 h), 95.2 ± 1.8%; in series [1] (1.5 h), 99.8 ± 2.1%; in series [1] (2.0 h), 92.4 ± 2.0%. In addition, the remaining activity at 10 µM at 5-LOX (human activated PMNL) worked out at 58.1 ± 5.5%. Further, the remaining activity at 5-LOX is 58.1 ± 5.5%.

Regarding `O=C(NCC12C[C@H]3C[C@@H](C1)C[C@@H](C2)C3)Nc1ccc2c(ccn2CCc2ccc(F)cc2)c1` [Compound 30, 1-(((3R,5R,7R)-Adamantan-1-yl)methyl)-3-(1-(4-fluorophenethyl)-1H-indol-5-yl)urea], the “chemical stability” value in series [1] (setting [2]) came out at 102.5 ± 1.1%; in series [1] (1.0 h) it was 100.3 ± 1.9%; in series [1] (1.5 h), 99.6 ± 0.2%; in series [1] (2.0 h) it was 102.4 ± 3.5%. In addition, the remaining activity at 10 µM at 5-LOX (human activated PMNL) is 65.1 ± 6.2%. For the same compound, the remaining activity on 5-LOX was found to be 65.1 ± 6.2%.

Regarding `O=C(Nc1ccc2c(c1)CCN2Cc1ccc(F)cc1)NC12C[C@H]3C[C@@H](C1)C[C@@H](C2)C3` [Compound 6, 1-((3S,5S,7S)-Adamantan-1-yl)-3-(1-(4-fluorobenzyl)indolin-5-yl)urea], the “chemical stability” value is recorded as 97.9 ± 3.5% in series [1] (setting [2]), 100.7 ± 4.3% in series [1] (1.0 h), 100.5 ± 3.5% in series [1] (1.5 h) and 102.4 ± 0.1% in series [1] (2.0 h). In addition, the remaining activity at 10 µM on 5-LOX (human activated PMNL) turned out to be 35.4 ± 3.1%. Moreover, on 5-LOX, the remaining activity worked out at 35.4 ± 3.1%. The IC50 on 5-LOX (human activated PMNL) is 240 nM and 243 nM.

In the case of `O=C(NCC12C[C@H]3C[C@@H](C1)C[C@@H](C2)C3)Nc1ccc2c(ccn2Cc2ccc(F)cc2)c1` [Compound 27, 1-(((3R,5R,7R)-Adamantan-1-yl)methyl)-3-(1-(4-fluorobenzyl)-1H-indol-5-yl)urea], the “chemical stability” value amounted to 99.2 ± 1.7% in series [1] (setting [2]), 95.5 ± 4.5% in series [1] (1.0 h), 98.9 ± 0.2% in series [1] (1.5 h) and 96.4 ± 0.5% in series [1] (2.0 h). The remaining activity at 10 µM at 5-LOX (human activated PMNL) was 59.4 ± 6.7%. Moreover, the remaining activity at 5-LOX worked out at 59.4 ± 6.7%.

Take `CC(C)c1ccc(Cn2ccc3cc(NC(=O)NCC45C[C@H]6C[C@@H](C4)C[C@@H](C5)C6)ccc32)cc1` [Compound 28, 1-(((3R,5R,7R)-Adamantan-1-yl)methyl)-3-(1-(4-isopropylbenzyl)-1H-indol-5-yl)urea]: the “chemical stability” value in series [1] (setting [2]) is recorded as 102.0 ± 2.7%; in series [1] (1.0 h), 101.7 ± 1.9%; in series [1] (1.5 h), 99.7 ± 2.3%; in series [1] (2.0 h) it was 102.4 ± 1.8%. Further, the remaining activity at 10 µM at 5-LOX (human activated PMNL) was 93.6 ± 4.8%. For the same compound, the remaining activity on 5-LOX is 93.6 ± 4.8%.
